Like-named read-outs stand apart in the source and are kept apart here.
Experiments:
SbPOR2b [1] = target: T1, SbPOR2b (Sorghum bicolor, UniProt C5YJG8); experiment: biochemical; set-up: POR proteoliposome reduction of cytochrome c, MTT (absorbance) or resazurin (fluorescence), normalized to DMSO control; conditions: Liposomes=Liposomes, electron acceptor as given
T1 construct: gene CPR; full-length, expressed in E. coli NiCo21(DE3) from pET52b, purified on 2',5'-ADP Sepharose and Q-sepharose, in DLPC/DLPG proteoliposomes; mutant in lipid nanodiscs
Description: (§1) Using Cytc, MTT or RS as electron acceptors the change in absorbance (550 nm for Cytc and 610 nm for MTT) or emission (570 nm excitation, 585 nm emission for RS) was monitored as a function of time. Cytc and RS concentrations were both close to KM of the given electron acceptor, while MTT and NADPH were in excess amounts. Concentrations were 40 μM Cytc, 10 μM RS, 500 μM MTT and 100 μM NADPH unless otherwise stated. POR activity was extracted from the slope of the linear region of each trace. Michaelis–Menten kinetics and IC50 curves were performed under identical conditions using relevant substrate and ligand concentrations. All measurements were repeated at least three times and subsequently normalized to DMSO control measurements. […] Fluorescence intensities of resorufin in the presence of rifampicin were corrected according to a linear calibration curve (see Supplementary Fig. 7). Given that point-mutations in human POR can lead to altered specificity towards CYP isoforms[4],[19], we tested whether small-molecule ligands can bias the specificity of human POR to reduce diverse electron acceptors. […] (MTT)[32] (Fig. 2A). Each of the assays relies on spectral changes of the electron acceptor upon reduction by POR and thus directly reports on POR activity towards reducing the specific redox partner (see Supplementary Methods for details). Being comparative these assays exclude artefacts that may originate from potential FMN loss. […] POR plays an omnipotent role as an electron donor to microsomal CYPs in all eukaryotes and serves as a key metabolic hub in plants as well as humans. To test whether the effect of small-molecule ligand binding to POR is an omnipotent phenomenon underlying the regulation of POR in organisms from different kingdoms, we performed binding assays based on intrinsic fluorescence quenching and dose-response experiments on POR2b from the crop plant Sorghum bicolor (SbPOR2b) in proteoliposomes (Fig. 3A, B, Supplementary Fig. 6 and Supplementary Table 3).

human POR [2] = target: T2, human POR (Homo sapiens, UniProt A0A9L9PY49); experiment: biochemical; set-up: POR proteoliposome reduction of cytochrome c, MTT (absorbance) or resazurin (fluorescence), normalized to DMSO control; conditions: Liposomes=Liposomes, electron acceptor as given
T2 construct: full-length wild type in pET22b, expressed in E. coli BL21(DE3); bacterial membranes reconstituted in DLPC/DLPG liposomes without further purification, or used as microsomes
T2 sequence (A0A9L9PY49 1-680): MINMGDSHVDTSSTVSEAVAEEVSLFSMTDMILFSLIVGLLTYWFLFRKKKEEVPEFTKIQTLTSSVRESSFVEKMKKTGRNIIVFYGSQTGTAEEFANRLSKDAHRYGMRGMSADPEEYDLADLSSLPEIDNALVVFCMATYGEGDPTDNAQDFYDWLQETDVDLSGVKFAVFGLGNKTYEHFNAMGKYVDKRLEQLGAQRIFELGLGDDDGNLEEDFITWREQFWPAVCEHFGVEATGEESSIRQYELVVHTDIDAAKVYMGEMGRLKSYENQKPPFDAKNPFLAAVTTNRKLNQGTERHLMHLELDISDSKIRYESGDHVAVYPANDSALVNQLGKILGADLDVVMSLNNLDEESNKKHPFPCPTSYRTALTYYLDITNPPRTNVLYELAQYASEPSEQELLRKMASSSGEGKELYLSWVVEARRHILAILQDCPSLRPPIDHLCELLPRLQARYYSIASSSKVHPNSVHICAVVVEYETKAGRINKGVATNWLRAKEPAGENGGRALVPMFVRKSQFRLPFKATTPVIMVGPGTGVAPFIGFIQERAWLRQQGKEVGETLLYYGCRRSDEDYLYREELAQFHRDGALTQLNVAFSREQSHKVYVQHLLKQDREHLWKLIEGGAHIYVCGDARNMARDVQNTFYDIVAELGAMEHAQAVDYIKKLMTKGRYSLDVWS
Description: as §1

in vitro = conditions: human, nci-h295r cells
Description: We tested the efficiency of the three ligands to elicit a physiological response on steroidogenic CYP activities in cells (Fig. 5A, see Supplementary Methods, Supplementary Fig. 14 and Supplementary Table 4 for all data and number of biological replicates). The 3 tested ligands are not known to interact directly with CYP17, CYP19 or CYP21, albeit rifampicin and [compound left out] are known to interact with liver CYPs like CYP2B6[27] and CYP3A4[28]. Using a human adrenocortical cell line (NCI-H295R) we tested the effect of ligands on CYP17A1 and CYP21A2[59],[60] activities at 10 and 100 μM concentrations (Fig. 5A). Using radiolabeled substrates, we were able to quantify the steroid hormone production of CYP17A1 and CYP21A2 and its remodeling by POR ligands (see Supplementary Methods for details). […]. Rifampicin caused no significant effect on CYP17A1 activity, but reduced CYP21A2 activity at 100 μM (73 ± 4% of control; see Fig. 5A and Supplementary Fig. 14). […]. […]. […] (91 ± 12% of control). Specific inhibition of CY Fig. 5 Biased metabolism: small-molecule ligands bias steroidogenic CYP-activities in human cells and microsomes. A A human adrenocortical cell line (NCI-H295R) was used to assess the effect of small-molecule ligands on steroidogenic CYP17A1 and CYP21A2 hydroxylase activity, and CYP17A1 lyase activity, using radiolabeled substrates (see Supplementary Methods and Supplementary Table 4). Cell viability was assessed based on MTT reduction. […]. The cells display increased MTT reduction indicating increased reductase activity. No significant effects on CYP17A1 activities are observed. [compound left out] causes a significance increase in CYP17A1 lyase and less significant towards 17-OHase and 21A2 activities, while MTT reduction decreases slightly. [compound left out] causes inhibition of both CYP17A1 and CYP21A2 activities. B Abiraterone was used as a control inhibitor of CYP17A1 and CYP21A2 in H295R cells. C The effect of ligands on CYP19A1 activity was assessed on microsomes from a human choriocarcinoma cell line (JEG3). […]. A, C Error bars represent mean ± SD of 3–4 biological replicates normalized to DMSO controls with propagated error. See Supplementary Fig. 14 for raw data and Supplementary Table 4 for exact value of n for each experimental condition. Note, overlapping data points appear shaded. Level of significance is determined by one-way ANOVA and Tukey’s HSD test correcting for multiple comparisons (*p < 0.05; **p < 0.01; ***p < 0.005; see Supplementary Methods for details). Source data are provided as a Source Data file.

SbPOR2b [3] = target: T1, SbPOR2b; experiment: cytochrome c reduction, absorbance […] nm, Hill fit; type: biochemical
human POR [4] = target: T2, human POR; experiment: cytochrome c reduction, absorbance […] nm; type: biochemical; conditions: read-out: % of control at 100 μM
SbPOR2b [5] = target: T1, SbPOR2b; experiment: resazurin reduction, fluorescence, Hill fit; type: biochemical
Description: resazurin reduction, fluorescence, Hill fit on SbPOR2b | while marginally reducing the capacity in the RS assay

SbPOR2b [6] = target: T1, SbPOR2b; experiment: cytochrome c reduction, absorbance […] nm, Hill fit; type: biochemical; remark: listed apart in the source
SbPOR2b [7] = target: T1, SbPOR2b; experiment: resazurin reduction, fluorescence, Hill fit; type: biochemical; remark: listed apart in the source
Description: resazurin reduction, fluorescence, Hill fit on SbPOR2b | activity decrease in Cytc reduction and increase in RS reduction

[8] = read-out: % of control remaining, Cytochrome C=Cytochrome C
[9] = read-out: % of control remaining, Cytochrome C=Resazurin
[10] = read-out: % of control remaining, Cytochrome C=MTT
[11] = Assay=MTT cell viability, DMSO (v/v %)=1, read-out: % viability
[12] = Cytochrome C=Cytochrome C, read-out: % of control remaining
[13] = Cytochrome C=Resazurin, read-out: % of control remaining
[14] = Cytochrome C=MTT, read-out: % of control remaining

T1 sequence (C5YJG8 whole entry): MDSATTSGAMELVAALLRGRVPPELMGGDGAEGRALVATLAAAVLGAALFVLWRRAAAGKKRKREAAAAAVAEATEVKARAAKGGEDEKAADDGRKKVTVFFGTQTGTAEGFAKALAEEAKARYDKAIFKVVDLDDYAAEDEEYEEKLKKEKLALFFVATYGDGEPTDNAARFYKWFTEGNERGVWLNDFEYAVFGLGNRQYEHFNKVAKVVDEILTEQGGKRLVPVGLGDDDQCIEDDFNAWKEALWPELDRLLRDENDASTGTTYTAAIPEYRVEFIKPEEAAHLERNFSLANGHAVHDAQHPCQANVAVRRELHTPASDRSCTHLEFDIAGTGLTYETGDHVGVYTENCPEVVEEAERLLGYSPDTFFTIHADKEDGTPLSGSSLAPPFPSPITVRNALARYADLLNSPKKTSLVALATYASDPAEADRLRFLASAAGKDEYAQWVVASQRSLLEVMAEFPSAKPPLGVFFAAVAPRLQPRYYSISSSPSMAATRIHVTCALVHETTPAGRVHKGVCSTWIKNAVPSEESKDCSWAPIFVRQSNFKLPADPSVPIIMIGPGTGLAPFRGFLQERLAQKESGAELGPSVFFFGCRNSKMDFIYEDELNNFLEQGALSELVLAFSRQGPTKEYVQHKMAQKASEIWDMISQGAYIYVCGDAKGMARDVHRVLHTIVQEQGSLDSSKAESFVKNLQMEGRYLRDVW

Row | Structure (SMILES) | remaining activity at 10 µM (human POR [2]; [8]) [%] | remaining activity at 10 µM (human POR [2]; [10]) [%] | remaining activity at 10 µM (human POR [2]; [9]) [%] | remaining activity at 100 µM (human POR [2]; [9]) [%] | remaining activity at 100 µM (human POR [2]; [8]) [%] | further results
1 | CO[C@H]1/C=C/O[C@@]2(C)Oc3c(C)c(O)c4c(O)c(c(/C=N/N5CCN(C)CC5)c(O)c4c3C2=O)NC(=O)/C(C)=C\C=C\[C@H](C)[C@H](O)[C@@H](C)[C@@H](O)[C@@H](C)[C@H](OC(C)=O)[C@@H]1C [rifampicin] | 113 | 95.7 | 132 | 312 | – | remaining activity at 10 µM (SbPOR2b [1]; [8]): 140%; remaining activity at 100 µM (SbPOR2b [1]; [8]): 179%; remaining activity at 10 µM (SbPOR2b [1]; [9]): 102%; remaining activity at 100 µM (SbPOR2b [1]; [9]): 85%; remaining activity at 100 µM (human POR [2]; [10]): 122%; viability at 10 µM (in vitro; [11]): 94%; viability at 100 µM (in vitro; [11]): 116%; EC50 (SbPOR2b [3]): 9 ± 8 µM; remaining activity at 100 µM (human POR [4]): 14 ± 5%; IC50 (SbPOR2b [5]): 18 ± 9 µM
2 | N#C[C@@H](O[C@@H]1O[C@H](CO)[C@@H](O)[C@H](O)[C@H]1O)c1ccc(O)cc1 [dhurrin] | – | – | – | – | – | remaining activity at 10 µM (SbPOR2b [1]; [12]): 128%; remaining activity at 100 µM (SbPOR2b [1]; [12]): 156%; remaining activity at 100 µM (SbPOR2b [1]; [13]): 236%; remaining activity at 10 µM (human POR [2]; [14]): 87.7%; remaining activity at 100 µM (human POR [2]; [14]): 95.9%; remaining activity at 10 µM (human POR [2]; [13]): 105%; remaining activity at 100 µM (human POR [2]; [13]): 81.7%; viability at 10 µM (in vitro): 93.6%; viability at 100 µM (in vitro): 88.1%; EC50 (SbPOR2b [3]): 21 ± 12 µM; remaining activity at 100 µM (human POR [4]): 48 ± 9%
3 | CC(=O)CC(c1ccccc1)c1c(O)c2ccccc2oc1=O (centres unmarked) [Warfarin] | 102 | 118 | 96.2 | – | – | –
4 | O=P1(N(CCCl)CCCl)NCCCO1 (centres unmarked) [cyclophosphamide] | – | – | – | – | – | viability at 10 µM (in vitro): 87.9%; viability at 100 µM (in vitro): 81.4%; IC50 (SbPOR2b [6]): 228 ± 208 µM; EC50 (SbPOR2b [7]): 159 ± 136 µM

Further lines, with some results ahead:

Row | remaining activity at 10 µM (human POR [2]; [8]) [%] | remaining activity at 10 µM (human POR [2]; [10]) [%] | remaining activity at 10 µM (human POR [2]; [9]) [%] | remaining activity at 100 µM (human POR [2]; [9]) [%] | remaining activity at 100 µM (human POR [2]; [8]) [%] | Structure (SMILES) | further results
5 | 108 | 88.4 | 96.9 | 95.9 | 118 | CC(C)c1nc(CN(C)C(=O)N[C@H](C(=O)N[C@@H](Cc2ccccc2)C[C@H](O)[C@H](Cc2ccccc2)NC(=O)OCc2cncs2)C(C)C)cs1 [Ritonavir] | –
6 | 110 | 96.9 | 107 | 112 | 117 | CN/C(=N\CCSCc1nc[nH]c1C)NC#N [Cimetidine] | –
7 | 101 | 110 | 53.7 | – | – | CO[C@@]12[C@H](COC(N)=O)C3=C(C(=O)C(C)=C(N)C3=O)N1C[C@@H]1N[C@@H]12 [Mitomycin C] | –
8 | 95.6 | 85.1 | 102 | 102 | 106 | CCCCc1oc2ccccc2c1C(=O)c1cc(I)c(OCCN(CC)CC)c(I)c1 [Amiodarone] | –

Reference: paper PMC8050233, “Biased cytochrome P450-mediated metabolism via small-molecule ligands binding P450 oxidoreductase” (Nature Communications, 2021)
